This note sets out measurements from US20030119913A1, “Method for increasing serotonin levels in a person by administration of a composition incorporating (-)-hydroxycitric acid, and related compositions thereof” (priority 2001, published 2003).

Assay [1] relates to rat brain cortex slices. The experiment in a line: Radiolabeled serotonin release from isolated, superfused rat brain cortex slices in vitro. The class given is cell-based. The procedure:
Methods previously known for studies of radiolabeled serotonin release were employed. Isolated rat brain cortex slices were incubated in oxygenated Krebs buffer solution containing 800 nM radiolabeled serotonin, the monoamine oxidase inhibitor pargyline (10 μM), and the cyclooxygenase inhibitor flurbiprofen (3 μM) at 37° C. […] Radiolabeled serotonin was purchased from NEN Life Sciences, Boston, Mass. The Krebs solution used had the following composition (millimolar): potassium chloride, 4.8; sodium chloride 118; calcium chloride, 1.3; potassium dihydrogen phosphate, 1.2; sodium bicarbonate, 25; magnesium sulfate, 2.0; and dextrose, 10 (pH 7.4).
After incubation, tissues were rinsed, mounted between nylon mesh-cloth and placed in thermostatically-controlled superfusion chambers. Tissues were superfused at a rate of 0.5 ml/min with oxygenated Krebs solution containing clomipramine (10 μM), a serotonin reuptake inhibitor. Fractions of the superfusate were collected at 6-minute intervals, and 3-ml aliquots of each fraction was combined with 12 ml of aqueous scintillation cocktail marketed under the name Ecolume, by ICN Radiochemicals of California) and analyzed for radioactivity by liquid scintillation spectrometry.
After an initial 2 hours of superfusion to establish a stable baseline of spontaneous tritium efflux, release of radiolabeled serotonin was elicited by consecutive potassium-depolarizing (K+, 50 mM) stimuli applied at 144 minutes (S1) and at 198 minutes (S2) after the onset of superfusion. In some experiments, tissues were exposed to different concentrations of HCA for 12 minutes before the second K+ stimuli at S2. When HCA was tested on its own, the K+ (50 mM; S1) peak was used as the standard (or control) response. In this case, effects induced by HCA on radiolabeled serotonin release were then compared with the standard K+ response. Both K+ and HCA-induced radiolabeled serotonin release were estimated by subtraction of the extrapolated basal tritium efflux from total tritium release in the 20-minute period after the onset of stimulation. Basal (unstimulated) tritium efflux was assumed to decline linearly between pre-stimulation and post-stimulation fractions. Stimulation-evoked radiolabeled serotonin release during S1 and S2 was determined graphically, and the ratio of the two peaks (S1/S2) was calculated and compared with untreated control preparations.
Results obtained were expressed as absolute S1/S2 ratios. Data from different experiments (control and test) were pooled and then subjected to statistical analysis. Except where indicated otherwise, values given are arithmetic means ±SEM. Significance of difference between control and test values was evaluated using analysis of variance (ANOVA) followed by Dunnett's test. […]

Assay [2] relates to moderately obese human subjects. Nature of the assay: Double-blind, placebo-controlled human clinical trial (serum serotonin, body weight, food intake). The class given is in vivo. On the procedure: The effects of administering compositions within the scope of the present invention were tested. A double-blind, placebo-controlled human clinical trial was conducted using a composition incorporating: the HCA extract described above, or the HCA extract in combination with an oxygen-coordinated niacin-bound chromium (ChromeMate®, supplied by InterHealth), and a standardized Gymnema sylvestre extract (also supplied by InterHealth). Approximately 80 moderately obese human subjects were enrolled in the study. All subjects were placed on a daily diet of 2,000 kcal, weighing 2,250 grams. All food was prepared and delivered to the subjects, and all food intake was strictly supervised by trained dieticians. All subjects also underwent a 30 minute walking exercise program, five times a week, which was supervised by a trained exercise specialist. The subjects were randomly divided into three groups. The first group was given a placebo. The second group was given a daily dose of 4,667 mg of garcinia cambogia extract (providing 2,800 mg HCA per day). The third group was given a daily dose of 4,667 mg of a combination of garcinia cambogia (2,800 mg HCA), 4 mg of niacin-bound chromium (providing 400 mcg of elemental chromium), and 400 mg of Gymnema sylvestre extract (providing 100 mg […]). The subjects received their respective compositions in three equally-divided doses 30 to 60 minutes before breakfast, lunch and dinner for eight weeks. These dosage levels of HCA were determined by extrapolation of successful earlier animal trials, as well as review of optimal micromolar concentrations of HCA in ex vivo brain tissue resulting in maximum serotonin release. The persons were assessed for changes in serum serotonin levels, body weight, and food intake. As discussed above, increases in serum serotonin levels relate to reduced appetite. Food intake was measured by monitoring the amount of food left unconsumed after each meal by the subjects. The amount of food left unconsumed while taking either the placebo or either of the HCA compositions was compared to the amount of food left unconsumed before the subjects began taking the compositions (i.e., the baseline). Changes in each of these factors were measured in the persons and averaged to produce the figures in Table 1.

[3] abbreviates: eight weeks, 2,800 mg HCA per day orally in three doses.

Consider `O=C(O)CC(O)(C(=O)O)C(O)C(=O)O` (single isomer, unassigned; (-)) [HCA, (−)-hydroxycitric acid], for which, in assay [1] (HCA 10 μM-1 mM applied 12 minutes before second K+ (50 mM) stimulus), the “Effect on second K+ response (K+-depolarization evoked radiolabeled serotonin release, S2)” value was “no significant effect”. Also, the “Effect on basal efflux of radiolabeled serotonin” value in assay [1] (HCA 10 μM-1 mM, rat brain cortex slices) is listed as “concentration-related increase”. In assay [1] (HCA 300 μM (maximal concentration)), the “Overflow of radiolabeled serotonin compared with standard K+ (50 mM) response” value was “equivalent to the release induced by the standard concentration of K+ (50 mM)”. In addition, the “Concentration giving maximum basal efflux of radiolabeled serotonin” value in assay [1] (tested range 10 μM-1 mM) turned out to be 300 µM. For the same compound, in assay [2] (setting [3]), the “Body weight, % decrease” value was determined as 5.0%; the “Serum serotonin level, % increase” value was 48.5%; the “Serum serotonin level, mg/dl increase” value amounted to 119.1 mg/dL. The “Body weight, pounds lost” value in assay [2] (eight weeks, 2,800 mg HCA per day orally in three doses, 2,000 kcal diet and exercise) is 10.0 pounds. Moreover, the “Food left unconsumed, % increase from baseline” value in assay [2] (eight weeks, compared with before taking the compositions) is on record as 206%. The “Food left unconsumed, grams” value in assay [2] (eight weeks, daily diet weighing 2,250 grams) was determined as 249 grams.
